Measurements: the supplement of paper PMC5412046
Where a name gives a salt, the structure may show the parent alone.

Key:
SB.mhdgc-1 = assay: AC50 for growth inhibition (viability) (log10 M); higher = less potent; conditions: SB.mhdgc-1 (hereditary c.1380delA CDH1 gastric cancer)
Summary of the method: (§1)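 Hereditary or sporadic patient-derived gastric cancer cells (500 cells in 5 μL medium per 1536 well) received 23 nL compound in DMSO by pintool. Dosing was 11 threefold dilutions starting at a final 46 μM. After 48 h, CellTiter-Glo was added for 30 min at room temperature and luminescence read on a ViewLux. Log half-maximal activity concentration came from a four-parameter fit of DMSO-normalised viability, keeping only high-quality curve classes.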

SB.msgc-1 = assay: as above; conditions: SB.msgc-1 (sporadic gastric cancer)
Summary of the method: as §1

Row | Compound | AC50 for growth inhibition (log10 M) (SB.mhdgc-1) | AC50 for growth inhibition (log10 M) (SB.msgc-1)
1 | Cn1cnc2c(F)c(Nc3ccc(Br)cc3Cl)c(C(=O)NOCCO)cc21 [Selumetinib] | -5.38 | -5.18
2 | COc1cccc2cc(-c3nc(C4CCC(C(=O)O)CC4)n4ncnc(N)c34)[nH]c12 (stereo not given) [OSI-027] | -7.58 | -5.33
3 | Cc1nc(Nc2n[nH]c3c2CN(C(=O)N[C@H](CN(C)C)c2ccccc2)C3(C)C)c2sccc2n1 | -5.98 | -6.53
4 | C[N]1C=NC=C1[C@@](N)(C2=CC=C(Cl)C=C2)C3=CC=C4N(C)C(=O)\C=C(\C5=CC=CC(=C5)Cl)C4=C3 [Tipifarnib] | -4.83 | -4.83
5 | COc1cc(C(C)C)c(Oc2cnc(NC(CO)CO)nc2N)cc1I [Ro 51] | -6.63 | -6.18
6 | CO[C@H]1/C=C/O[C@@]2(C)Oc3c(C)c(O)c4c(O)c(c(/C=N\N5CCN(C6CCCC6)CC5)c(O)c4c3C2=O)NC(=O)/C(C)=C\C=C\[C@H](C)[C@H](O)[C@@H](C)[C@@H](O)[C@@H](C)[C@H](OC(C)=O)[C@@H]1C [Rifapentine] | -7.38 | -6.33
7 | COc1cc2c(NC3CCN(C(C)C)CC3)nc(C3CCCCC3)nc2cc1OCCCN1CCCC1 [UNC-0638] | -5.58 | -4.78
8 | COc1ccc2[nH]cc(CCNC(C)=O)c2c1 [Melatonin] | -5.33 | -5.83
9 | Cl.Cl.Cl.O[C@@H](COc1cccc2ncccc12)CN1CCN([C@@H]2c3ccccc3[C@@H]3[C@H](c4ccccc42)C3(F)F)CC1 [Zosuquidar trihydrochloride] | -4.93 | -5.28
10 | CCOc1cc(N2CCC(O)CC2)ccc1Nc1ncc2c(n1)N(C)c1ccccc1C(=O)N2C [XMD8-92] | -5.98 | -5.18
11 | Cc1cc(Nc2cc(CN3CCOCC3)c3nc(C)c(Cc4ccc(Cl)cc4F)n3n2)[nH]n1 [Gandotinib] | -4.68 | -4.73
12 | F\C1=C\NC(=O)NC1=O [Fluorouracil] | -6.43 | -5.28
13 | O=C(C=CC#Cc1cccc(N[S+](=O)([O-])c2ccccc2)c1)NO [Oxamflatin] | -5.28 | -5.58
14 | CC(C)(O)c1cc2nc(-c3cnc(N)nc3)nc(N3CCOCC3)c2s1 [GNE-493] | -6.98 | -6.88
15 | CC(C)C[C@@H](C(=O)N[C@H](C(=O)OC1CCCC1)c1ccccc1)[C@H](O)C(=O)NO [Tosedostat] | -5.43 | -4.83
16 | CC(C)NCC(O)c1ccc(O)c(O)c1 (stereo not given) [Isoprenaline hydrochloride] | -5.43 | -4.83
17 | CC1(C)OC/2=C(\[C@H](NCC3=CC=CC=C3)[C@@H]1O)C(=O)C4=CC=CC=C4C2=O | -5.43 | -5.58
18 | C[C@@H]1O[C@@H](O[C@H]2C[C@@H](O)[C@]3(CO)[C@H]4[C@H](O)C[C@]5(C)[C@@H](C6=CC(=O)OC6)CC[C@]5(O)[C@@H]4CC[C@]3(O)C2)[C@H](O)[C@H](O)[C@H]1O [G-Strophanthin] | -6.98 | -7.38
19 | C/C=C1\NC(=O)[C@H]2CSSCC/C=C\[C@H](CC(=O)N[C@H](C(C)C)C(=O)N2)OC(=O)[C@H](C(C)C)NC1=O [Romidepsin] | -7.63 | -7.83
20 | O=C(CCCCCCNC(=O)c1cnc(N(c2ccccc2)c2ccccc2)nc1)NO [ACY-1215] | -5.23 | -5.08
21 | CCC(=O)NC[C@H](Cc1ccc(OCCc2nc(-c3ccccc3)oc2C)cc1)N/C(C)=C\C(=O)c1ccc(C(F)(F)F)cc1 [GW-6471] | -5.48 | -4.73
22 | COc1cc([C@@H]2c3cc4c(cc3[C@@H](O)C3COC(=O)C32)OCO4)cc(OC)c1O (stereo not given in full) [4-Demethylepipodophyllotoxin] | -7.38 | -6.63
23 | NCC/1=C/NC(=S)N1[C@H]2CCC3=C(F)C=C(F)C=C3C2 [Nepicastat hydrochloride] | -4.98 | -5.03
24 | CC(=O)O[C@@]12CO[C@@H]1C[C@H](O)[C@]3(C)[C@@H]2[C@H](OC(=O)C4=CC=CC=C4)[C@]5(O)C[C@H](O)/C(=C(/[C@@H](O)C3=O)C5(C)C)C [10-Deacetylbaccatin] | -5.83 | -5.38
25 | CC(=O)[C@]1(O)Cc2c(O)c3c(c(O)c2[C@@H](O[C@H]2C[C@H](N)[C@H](O)[C@H](C)O2)C1)C(=O)c1ccccc1C3=O [Idarubicin hydrochloride] | -7.38 | -6.63

Row | Compound | AC50 for growth inhibition (log10 M) (SB.mhdgc-1) | AC50 for growth inhibition (log10 M) (SB.msgc-1)
26 | COC(=O)Nc1nc2cc(C(=O)c3ccc(F)cc3)ccc2[nH]1 [Flubendazole] | -5.23 | -6.23
27 | Cc1ccc(CN2CCNCC2)cc1NC(=O)CNc1ccc(F)c(F)c1 | -5.93 | -5.38
28 | Nc1nc(Cl)nc2c1ncn2[C@H]1C[C@H](O)[C@@H](CO)O1 [Cladribine] | -6.58 | -5.83
29 | CN(CC(=O)N(Cc1ccc(C2CCCCC2)cc1)c1ccc(C(=O)O)c(O)c1)[S+](=O)([O-])c1c(F)c(F)c(F)c(F)c1F [BP-1-102] | -4.58 | -4.73
30 | NC(=O)Nc1sc(-c2ccc(F)cc2)cc1C(N)=O [TPCA-1] | -5.93 | -5.48
31 | CC(C)N[C@@H]1CCn2c(=O)[nH]c3cccc(c32)[C@H]1O [Zilpaterol] | -5.33 | -5.63
32 | CN1CCN(CCOc2cc(OC3CCOCC3)c3c(Nc4c(Cl)ccc5c4OCO5)ncnc3c2)CC1 [Saracatinib] | -4.63 | -5.88
33 | C#Cc1cccc(Nc2ncnc3cc(OCCOC)c(OCCO)cc23)c1 [OSI-420] | -6.23 | -6.03
34 | CC(=O)O/N=C1/C(=C2\C(=O)Nc3cc(Br)ccc32)Nc2ccccc21 [6-Bromoindirubin-3'-acetoxime] | -5.13 | -4.93
35 | N#C/C(=C(/N)Sc1ccc(N)cc1)c1ccccc1C(F)(F)F [SL-327] | -5.28 | -5.13
36 | COC1=CC(=CC(=C1)C2=CC=C3N=CC\4=C(N(C(=O)\C=C4)C5=CC(=C(C=C5)N6CCNCC6)C(F)(F)F)C3=C2)OC | -5.33 | -5.43
37 | COC[C@H](c1ccc(C(F)(F)F)cc1)N1CCN(C2(C)CCN(C(=O)c3c(C)ncnc3C)CC2)C[C@H]1C.O=C(O)/C=C\C(=O)O [Vicriviroc] | -5.33 | -4.78
38 | CC(=O)Oc1ccccc1C(=O)Nc1ncc([N+](=O)[O-])s1 [Nitazoxanide] | -4.72 | -4.72
39 | C=C1/C(=C/C=C2\CCCC3(C)[C@@H]([C@H](C)/C=C/C=C/C(O)(CC)CC)CC[C@@H]23)C[C@@H](O)C[C@@H]1O (stereo not given in full) [Seocalcitol] | -4.83 | -4.78
40 | COc1cccc2c1C(=O)c1c(O)c3c(c(O)c1C2=O)C[C@@](O)(C(=O)CO)C[C@@H]3O[C@H]1C[C@H](N)[C@@H](O)[C@H](C)O1 [Epirubicin hydrochloride] | -6.93 | -6.18
41 | CO[C@@H]1[C@H](N(C)C(=O)c2ccccc2)C[C@H]2O[C@]1(C)n1c3ccccc3c3c4c(c5c6ccccc6n2c5c31)C(=O)NC4 [Midostaurin] | -5.63 | -5.38
42 | OC1=CC=C(C=C1)\C2=C\C(=O)C3=C(O2)C=C(O)C=C3O [Apigenin] | -5.08 | -4.83
43 | CC[C@H](C)[N]1C=C(C)C2=C1C=C(C=C2C(=O)NC\C3=C(C)\C=C(\C)NC3=O)C4=CC=C(N=C4)N5CCNCC5 [GSK126] | -5.03 | -4.98
44 | CC(C)C[C@H](NC(=O)CNC(=O)c1cc(Cl)ccc1Cl)B1OC(=O)CC(CC(=O)O)(C(=O)O)O1 (stereo not given in full) [Ixazomib citrate] | -7.03 | -7.23
45 | CC(C)=CC[C@@H](O)C/1=C/C(=O)C2=C(O)C=CC(=C2C1=O)O [Shikonin] | -6.13 | -5.83
46 | O=C1\C=C(OC2=C(C=CC=C12)C3=CC=CC4=C3SC5=C4C=CC=C5)\N6CCOCC6 [NU-7441] | -4.68 | -4.78
47 | CC\1=C(C(\N=C(/N1)C2=CC(=NC=C2)Cl)C3=C(F)C=C(Cl)C=C3)/C(=O)NC4=C(F)C=C5[NH]N=CC5=C4 (stereo not given) [GSK-25] | -5.08 | -4.63
48 | OC1=CC=C(C=C1)\C2=C(O)\C(=O)C3=C(O2)C=C(O)C=C3O [Kaempferol] | -4.93 | -4.88
49 | Cc1cc(CN2CCN(c3c(Br)cnc4[nH]c(-c5ccc(N6CCN(C)CC6)cc5)nc34)CC2)no1 | -4.63 | -4.68
50 | Cc1cc2c(F)c(Oc3ncnn4cc(OC[C@@H](C)O)c(C)c34)ccc2[nH]1 [Brivanib] | -4.98 | -4.73
